How the values were obtained:
[1] = Cytotoxicity against HEK293 cells incubated for 22 hrs by cell counting kit analysis; format: toxicity, cell-based; details: human
[2] = Biodistribution in blood of BALB/c nude mouse xenografted with human U-87 MG cells assessed as boron concentration at 500 mg/kg, ip measured 4 hrs post injection by ICP-MS analysis; format: ADME, organism-based; details: in vivo
[3] = Cytotoxicity against human U-87 MG cells assessed as cell survival at 100 uM incubated for 22 hrs by cell counting kit analysis relative to control; format: functional, U-87MG ATCC; details: read-out: Survival
[4] = Cytotoxicity against human U-87 MG cells incubated for 22 hrs by cell counting kit analysis; format: functional, cell-based, U-87MG ATCC
[5] = Cytotoxicity against HEK293 cells assessed as cell survival at upto 100 uM incubated for 22 hrs by cell counting kit analysis relative to control; format: toxicity, cell-based; details: human, read-out: Survival
[6] = Octanol/water partition coefficient, logP of compound at 10 mg incubated for 24 hrs by ICP-MS analysis; format: physicochemical
[7] = Effective permeability of the compound in pH 7.4 at 25 uM incubated for 4 hrs by PAMPA-BBB assay; format: ADME; details: read-out: Peff
HEK293 = assay: Cytotoxicity against HEK293 cells assessed as reduction in cell survival at higher concentrations incubated for 22 hrs by cell counting kit analysis; format: toxicity, cell-based; details: human, hek293, 22 h

## OB(O)c1ccc(-c2nc3ccccc3s2)cc1
[1]
  IC50 at 22 h: 265 µM
[2]
  Drug uptake: Active
[3]
  viability at 100 µM: < 43%
[4]
  IC50: 112 µM
[5]
  viability at 22 h, up to 100 µM: > 95%
[6]
  logP at 24 h: 0.32
[7]
  Papp at 4 h, 25 µM: 59.8 ×10⁻⁶ cm/s
HEK293
  Activity: Toxic

Reference: ChEMBL document CHEMBL5113544, “Development of Brain-Tumor-Targeted Benzothiazole-Based Boron Complex for Boron Neutron Capture Therapy” (ACS Med Chem Lett, 2022)
